This is an account of results in PMC7910569 (Scientific Data, 2021).

Series [1] concerns SARS-CoV-2. The series is classed as cell-based. The conditions noted are these: 10 µM. On the procedure: For the primary screen, the final compound concentration was 10 µM (in 0.1% DMSO) and each compound was tested in singlicate. Concentration-response profiling of primary hits was performed in triplicate with eight concentrations ranging from 20 µM to 20 nM (half-log dilution factor, 0.1% DMSO final). For initial dose response studies, compounds were tested on three different plates to minimise the influence of plate effects. Later dose response studies at lower concentrations were also done on the same plate. Following the addition of compounds, cells were immediately infected with SARS-CoV-2 at a multiplicity of infection (MOI) of 0.01. Positive controls were prepared with the virus but no compounds, and negative controls were prepared without the virus. After 48 h, the medium was removed and cells were fixed in 3% paraformaldehyde in phosphate-buffered saline (PBS). The plates were sealed and disinfected to inactivate the virus[13] then screened by high-content imaging using the Operetta CLS platform (PerkinElmer). The image data were processed as described below and deposited on the Image Data Resource[14].
Images were acquired using a 10× objective with nine imaged fields per well in label-free mode by digital phase contrast (DPC). […] This method improves the signal-to-noise ratio and allows for image segmentation and single-cell analysis. The images were analysed using PerkinElmer Columbus v2.9.0. The analysis sequence started with cell detection (method c, common threshold 0.05, area >100 µm^2, splitting coefficient 6.5, individual threshold 0.05, contrast >0.05) and was followed by calculating morphology, intensity and position properties as well as cell confluence (Fig. 2). The data were deposited on the Image Data Resource[14]. Although we used cell confluence as a read out parameter additional parameters were calculated and deposited as well. These parameters can be used for further analysis to include parameters related to cellular stress or cytoskeletal impairment, both critical for viral replication. Well-level data were analysed in ActivityBase (IDBS) and R v3.6.1, using cell confluence as final read out parameter. […] Outliers were eliminated according to the three-sigma method. Plate-level statistical performance was assessed using the Z’factor calculation with values between 0.35 and 1.0 representing an acceptable assay. Data for the primary screen were deposited on ChEMBL[17].Concentration-response curves were fitted in GraphPad Prism v8.0.0 (GraphPad Software) using a four-parameter […] (least squares fit). Data for the dose-response screen were deposited on ChEMBL[18].
Cytopathicity assays were conducted in 96 well Cellstar plates (Greiner bio-one) using 4 wells with cells without virus (negative control) and 4 wells with cells and with virus (positive control). A three-sigma invalidation was performed on the raw data of the controls on each plate, resulting in maximal one invalidated well per plate during primary screening. During hit confirmation and dose-response studies no wells were eliminated as all wells were within three-sigma. After invalidation the plate specific z’factor was calculated and the plate was removed if quality criteria (z’factor > 0.35) were not met. Plates passing quality control were analysed and normalized as specified above. Hits were identified by having at least 75% efficiency in blocking viral cytopathicity at 10 µM.

Series [2] can be described thus: in vitro. The conditions noted are these: human, Caco-2.
The test system of series [3] is SARS-CoV-2. Nature of the series: microbe, parasite or virus in culture. The settings on record: Severe acute respiratory syndrome coronavirus 2, Caco-2, 48 h, read-out: Results SARS-CoV-2 (Caco-2) IC50.
Series [4] has as its system MERS-CoV. The conditions noted are these: BHK-21; read-out: Reports MERS (Vero-6, Calu-3 or BHK21) IC50; cited from earlier work.
In series [5] the test system is SARS-CoV. The conditions noted are these: read-out: Reports SARS-CoV (Vero-E6) IC50, cited from earlier work.
In series [6] the test system is MERS-CoV. The conditions noted are these: cited from earlier work.
Series [7] concerns SARS-CoV-2. The conditions noted are these: for inhibition of cytopathicity in the concentration-response screen: Caco-2, compound concentrations of up to 20 µM; for anti-cytopathic activity against SARS-CoV-2 (in words): Caco-2, hits / concentration-response screen. In general terms: Cytopathic effects are the visible damage that an infection or toxin causes in cultured cells.
The subject of series [8] is SARS-CoV-2. The settings on record: Vero-E6, read-out: Reports SARS-CoV-2 (Vero-E6) IC50, cited from earlier work.
Series [9] deals with MERS-CoV. The settings on record: Calu-3; read-out: Reports MERS (Vero-6, Calu-3 or BHK21) IC50; cited from earlier work.
In series [10] the test system is SARS-CoV. The conditions noted are these: Calu-3; read-out: Reports SARS-CoV (Vero-E6 or Calu-3) IC50; cited from earlier work.
Where [11] appears, read: singlicate, Caco-2, 48 h, hit = at least 75% inhibition of cytopathicity.
[12] abbreviates: Vero-E6, ref 53, read-out: Reports MERS (Vero-E6) IC50.

A word on the IC50: it is the concentration at which inhibition is half-maximal.

Like-named read-outs stand apart in the source and are kept apart here.

As to `CCN(CC)Cc1cc(Nc2ccnc3cc(Cl)ccc23)ccc1O` [amodiaquine], the “activity in the primary screen (in words)” value in series [1] (setting [11]) was “inactive”.
As for `CNS(=O)(=O)Nc1nccc(Cc2c(C)c3ccc(Oc4ncccn4)cc3oc2=O)c1F` [RO5126766], in series [2], the CC50 is above 20 µM. For the same compound, in series [3], the IC50 was 18.2 µM.
Regarding `COc1ccc(Cc2nccc3cc(OC)c(OC)cc23)cc1OC` [papaverine], the IC50 in series [4] is 9.45 µM.
Turning to `C[C@@H]1CN(Cc2ccc(F)cc2)[C@@H](C)CN1C(=O)c1cc2c(C(=O)C(=O)N(C)C)cn(C)c2cc1Cl` [talmapimod], the CC50 in [2] is above 20 µM. Moreover, in [3], the IC50 turned out to be 9.6 µM.
As to `CCN(CCO)CCCC(C)Nc1ccnc2cc(Cl)ccc12` (stereo not drawn) [hydroxychloroquine], in [1] (setting [11]), the “activity in the primary screen (in words)” value is “inactive”.
In the case of `C[C@@H]1C[C@@H]([C@H](O)CC2CC(=O)NC(=O)C2)C(=O)[C@@H](C)C1` [cycloheximide], the IC50 in series [5] is 0.043 µM; in series [6] (read-out: Reports MERS (Vero-E6) IC50), 0.16 µM; in series [3], 0.58 ± 0.02 µM. This compound also gave a CC50 at 48 h in series [2] above 20 µM.
Regarding `N=C(N)c1ccc2cc(OC(=O)c3ccc(N=C(N)N)cc3)ccc2c1` [nafamostat], the “potency against SARS-CoV-2 in Caco-2 cell assay relative to previous studies using Vero-E6 cells” value in [7] (comparison with refs 27, 28) is above 500 fold. The IC50 is 22.5 µM in series [8] (ref 27, 28) and 0.1 µM in series [9].
In the case of `CC[C@H]1CN2CCc3cc(OC)c(OC)cc3[C@@H]2C[C@@H]1C[C@H]1NCCc2cc(OC)c(OC)cc21` [emetine], the “CI (cytotoxicity index)” value in [7] (human) came to 2. Moreover, the IC50 in [5] (Vero-E6, ref 53) was 0.051 µM; in series [6] (Vero-E6, ref 54, read-out: Reports MERS (Vero-E6) IC50), 0.08 µM; in [3], 0.52 ± 0.09 µM. The same compound gave a CC50 in series [2] of 1.13 ± 0.5 µM.
Take `CC(C)c1nc(CN(C)C(=O)N[C@H](C(=O)N[C@@H](Cc2ccccc2)C[C@H](O)[C@H](Cc2ccccc2)NC(=O)OCc2cncs2)C(C)C)cs1` [ritonavir]: the “activity in the primary screen (in words)” value in [1] (48 h) is “inactive”.
`C=C(c1ccccc1OCc1cccc(Cl)c1)n1ccnc1` [cloconazole]: in series [7] (read-out: Results SARS-CoV-2 (Caco-2) IC50), the 50% inhibitory concentration (IC50) was at least 20 µM.
Consider `CN(C)C(=O)COC(=O)Cc1ccc(OC(=O)c2ccc(NC(=N)N)cc2)cc1` [camostat], for which the half-inhibitory concentration (IC50) was above 50 µM in series [8] (ref 23); 1 µM in series [8] (ref 24); around 1 µM in series [10]; 1 µM in [9]; below 1 µM in [3].
For the compound `CCN(CC)CCCC(C)Nc1ccnc2cc(Cl)ccc12` (stereo not drawn) [chloroquine diphosphate], the “activity in the primary screen (in words)” value in series [1] (48 h) is “inactive”.
For the compound `COc1ccc2nc3cc(Cl)ccc3c(Nc3cc(CN4CCCC4)c(O)c(CN4CCCC4)c3)c2n1` [pyronaridine], the “activity in the primary screen (in words)” value in series [1] (setting [11]) was “inactive”. Besides, the “inhibition of cytopathicity in the concentration-response screen” value in series [7] is on record as below 50%.
Turning to `CCCCN(CCCC)CC(O)c1cc(Cl)cc2c1-c1ccc(Cl)cc1/C2=C/c1ccc(Cl)cc1` (stereo not drawn) [lumefantrine], the “activity in the primary screen (in words)” value in series [1] (setting [11]) was “inactive”.
As for `O[C@@H](COc1cccc2ncccc12)CN1CCN([C@@H]2c3ccccc3[C@@H]3[C@H](c4ccccc42)C3(F)F)CC1` [LY335979, zosuquidar], the “anti-cytopathic activity against SARS-CoV-2 (in words)” value (“anti-cytopathic activity” for short) in series [7] is reported as “identified”.
In the case of `Cc1cccc2c1CC[C@H](CN1CCC(c3c(Cl)cccc3Cl)CC1)C[C@@H]2O` [SB-612111], the half-maximal inhibitory concentration (IC50) in [3] stood at 0.77 µM.
Consider `CC(C)CN(C[C@@H](O)[C@H](Cc1ccccc1)NC(=O)O[C@H]1CO[C@H]2OCC[C@H]21)S(=O)(=O)c1ccc(N)cc1` [darunavir], for which the “activity in the primary screen (in words)” value in series [1] (setting [11]) was “inactive”.
Consider `CC(=NNC(=S)N1CC2CCC(CC2)C1)c1ccccn1` [NSC319276], for which the “anti-cytopathic activity” value in series [7] is on record as “moderately potent”.
For the compound `COc1cc(NC(C)CCCN)c2ncccc2c1` (stereo not drawn) [primaquine], the “activity in the primary screen (in words)” value in [1] (setting [11]) is “inactive”.
With `Nc1nc2c(ncn2[C@@H]2O[C@H](CO)[C@@H](O)[C@H]2O)c(=S)[nH]1` [thioguanosine], the “CI (cytotoxicity index)” value in series [7] (printed as CI = IC50/CC50, Caco-2 toxicity versus SARS-CoV-2 anti-cytopathic effect) is below 3. Further, the IC50 in series [3] worked out at 0.78 µM.
For `C[C@H](CS)C(=O)N1CCC[C@H]1C(=O)O` [captopril], in [1] (setting [11]), the “activity in the primary screen (in words)” value is recorded as “did not identify”.
`OC(c1cc(C(F)(F)F)nc2c(C(F)(F)F)cccc12)C1CCCCN1` (stereo not drawn) [mefloquine]: the “activity in the primary screen (in words)” value in series [1] (setting [11]) is on record as “identified in the primary screen”. The half-inhibitory concentration (IC50) was 4.33 µM in series [8] (ref 23); 8.06 µM in series [8] (ref 55); 7.41 µM in series [5] (Vero-E6, ref 53); 15.5 µM in [6] (setting [12]).
Turning to `COC(=O)C[C@](O)(CCCC(C)(C)O)C(=O)O[C@@H]1C(OC)=C[C@]23CCCN2CCc2cc4c(cc2[C@H]13)OCO4` [homo-harringtonine], the “anti-cytopathic activity” value in [7] was “identified”.
As for `CCN(CC)CCCC(C)Nc1ccnc2cc(Cl)ccc12` (stereo not drawn) [chloroquine], the “anti-cytopathic activity” value in series [7] was “not observed”. Further, the IC50 is 1.13 µM in [8] (ref 22); 46.8 µM in [8] (ref 55); 4.4 µM in series [5] (Vero-E6, ref 56); 6.28 µM in series [6] (setting [12]); above 20 µM in [3].
On to `Cc1cccc(C)c1OCC(=O)N[C@@H](Cc1ccccc1)[C@@H](O)C[C@H](Cc1ccccc1)NC(=O)[C@H](C(C)C)N1CCCNC1=O` [lopinavir], for which the “anti-cytopathic activity” value in series [7] is given as “active at the highest concentration”. The IC50 is 9.12 µM in series [8] (ref 23) and 8 µM in series [6] (Vero-E6, ref 57, 58, read-out: Reports MERS (Vero-6, Calu-3 or BHK21) IC50). The “Reports MERS (Vero-6, Calu-3 or BHK21) IC50” value in series [6] (Vero-E6, ref 57, 58) is reported as “not active”.
Take `NS(=O)(=O)OC[C@@H]1C[C@@H](n2ccc3c(N[C@H]4CCc5ccccc54)ncnc32)C[C@@H]1O` [pevonedistat]: in series [3], the IC50 is below 1 µM.
Regarding `CCC(CC)COC(=O)[C@H](C)N[P@](=O)(OC[C@H]1O[C@@](C#N)(c2ccc3c(N)ncnn23)[C@H](O)[C@@H]1O)Oc1ccccc1` [remdesivir], the IC50 is 0.069 µM in [5] (Vero-E6, ref 22) and 0.76 ± 0.18 µM in series [3]. Also, the CC50 in [2] is above 20 µM.
As to `Cc1c(C(=O)Nc2ccc(N3C[C@@H](C)O[C@@H](C)C3)nc2)cccc1-c1ccc(OC(F)(F)F)cc1` [LDE225], the “anti-cytopathic activity” value in [7] is “identified”.
`COc1cc(C)c2c(Oc3cccc(C(F)(F)F)c3)c(OC)cc(NC(C)CCCN)c2n1` (stereo not drawn) [tafenoquine]: the “activity in the primary screen (in words)” value in [1] (setting [11]) is “inactive”. In addition, the “inhibition of cytopathicity in the concentration-response screen” value in [7] is below 50%.
On to `N#CC(c1ccnc(OCc2ccc(CN3CCOCC3)cc2)n1)c1nc2ccccc2s1` (stereo not drawn) [bentamapimod], for which, in [2], the CC50 at 48 h was above 20 µM. The half-maximal inhibitory concentration (IC50) in series [3] came to 5.9 µM.
